Legend:
[1] = test system: streptozotocin (STZ) induced diabetes neuropathy; assay: Streptozotocin induced diabetic neuropathy, cold allodynia (acetone drop test); assay type: in vivo, Wistar rats; conditions: STZ diabetic neuropathic rats
Procedure: The aim of this study was to evaluate the effect of oral administration of butorphanol in rats with streptozotocin (STZ) induced diabetes neuropathy. A single injection of streptozotocin (STZ) (40-70 mg/kg, i.p.) was used to induce diabetes in rats. The primary measurements were made mechanical and thermal allodynia designed to detect effects of the treatment(s) on neuropathic pain.
(§1) Wistar rats weighing 250±20 g were maintained on standard laboratory diet and having free access to tap water ad lib were employed in the present study. They were housed in the animal house and were exposed to 12 hr cycle of light and dark. The experiments were conducted in a semi-sound proof laboratory. Care of the animals was in accordance with guidelines for experimentation on animals.
The STZ-induced diabetes model was adapted from Arison et al (1967).
On the experimental day 1 all rats were fasted 6-8 hrs prior to STZ treatment Immediately prior to the injection, STZ was dissolved in 50 Mm sodium citrate buffer (pH 4.5) to a final concentration of 10 mg/ml. […]
(§2) For the assessment of cold allodynia, which was stable for 3 weeks, the rats were placed on a wire mesh covered with a plastic dome and were allowed to habituate until the exploratory behavior diminished. Cold allodynia was measured as the number of foot withdrawal responses after application of stimuli to the plantar surface of the paw. […] Acetone was applied two times (once every 5 min) on the left paw, and the number of reactions (shaking, tapping, or licking) was counted during 30 sec. […] The score was expressed as accumulated numbers of reactions over the trials and determined before and 30 and 60 min after administration of the test drugs. Each individual test was expressed as a percentage of maximum possible effect (% MPE): […]
(§3) MPE (%) at 30 min time point was employed as a quantitative measure of the analgesic effect of the test drugs.
The anti-nociceptive effect was plotted assessed having time (relative to dosing time point) on the x-axis and percent maximum possible effect (% MPE) on the y-axis. […]

[2] = test system: vincristine induced painful neuropathy; assay: Vincristine induced painful neuropathy, cold allodynia (acetone drop test); assay type: in vivo, Wistar rats; conditions: vincristine neuropathic rats
Source text: The aim of this study was to evaluate the effect of oral administration of butorphanol in rats with vincristine induced painful neuropathy. The primary measurements were made mechanical and thermal allodynia designed to detect effects of the treatment(s) on neuropathic pain.
as §1
The vincristine model was adapted from Authier et al (1999). Rats were injected on five alternate days (day 4, 6, 8, 10 & 12) with vincristine (200 μg/kg i.p.) using an injection volume of 2 ml/kg. Thus, the cumulative dose of vincristine was computed to be 1 mg/kg. Tests took place three days after the last injection and continued over the next three weeks. […]
as §2, §3
The anti-nociceptive effect was plotted assessed having time (relative to dosing time point) on the x-axis and percent maximum possible effect (% MPE) on the y-axis. The results were expressed as mean±standard error of means (S.E.M.). […]

Oc1ccc2c(c1)[C@@]13CCCC[C@@]1(O)[C@@H](C2)N(CC1CCC1)CC3 [butorphanol, (−)17-(Cyclobutylmethyl)morphinan-3,14-diol]
cold allodynia score ([1]; oral 1, 3, 10, 30 mg/kg, FIG. 20): dose dependent decrease | cold allodynia withdrawal threshold in comparison to the control readings ([1]; oral): significant increase | time of peak effect post-administration (cold allodynia) ([1]; oral): 30 min | cold allodynia score ([2]; oral 1, 3, 10, 30 mg/kg, FIG. 16): dose dependent decrease | cold allodynia withdrawal threshold in comparison to the control readings ([2]; oral): significant increase | time of peak effect post-administration (cold allodynia) ([2]; oral): 30 min

Source: patent US10624887B2, “Compositions of (-)-17-(cyclobutylmethyl)morphinan-3,14,-diol” (priority 2010, dated 2020)
